Source: US12583859B2, “PRMT5 inhibitors and uses thereof” (California Institute of Technology, priority 2019, dated 2026)

What was measured:
[1] = molecular target: T1, PRMT5 (Homo sapiens, UniProt O14744); assay: PRMT5 Enzymatic Inhibition Assay (chemiluminescence immunoassay of histone H4 methylation); format: biochemical; settings: 1 hour at room temperature; 10 μM to 1 nM
T1 construct: purchased BPS Biosciences 52002L
Procedure: A chemiluminescence immunoassay (CLIA) measuring the amount of PRMT5-mediated histone methylation was performed in a 96-well plate format according to the manufacturer's protocol (BPS Biosciences, Cat #52002L). A 96-well plate precoated with histone H4 peptide was rehydrated prior to use. A master mix containing PRMT5 substrate S-adenosylmethionine, reaction buffer, and purified PRMT5 enzyme was added to create reaction-competent wells. Wells lacking either S-adenosylmethionine substrate or PRMT5 enzyme were created as negative controls. 10 test concentrations, ranging from 100 μM to 10 nM, of the test compound were prepared using a 1:3 serial dilution in dH2O. 5 μL of each test concentration was added into a reaction-competent well. 5 μL of a 1% DMSO aqueous solution lacking inhibitor was added into negative control wells and into a reaction-competent well, creating a positive control well. The final reaction volume in each well was 50 μL, and the final concentration of the test compound in each well ranged from 10 μM to 1 nM. A known inhibitor of PRMT5, EPZ015666, was tested in parallel reaction wells as an assay validation control. The 96-well plate was incubated for 1 hour at room temperature.
Upon completion of the incubation, the reaction supernatant in each well was discarded. Wells were washed with 1×TBST and incubated in blocking buffer for 1 hour. The wells were incubated with a primary antibody recognizing methylated Arg3 residues on Histone H4 for 1 hour. The wells were washed with 1×TBST again and subsequently incubated with an HRP-conjugated secondary antibody for 30 minutes. The wells were washed again with 1×TBST, and equal parts of the chemiluminescence reagents were added into each well. Quantification of luminescence was measured in a plate reader.
Luminescence values were normalized against the positive and negative controls to convert the data into % PRMT5 activity. An inhibitor concentration-dependent curve was plotted against % PRMT5 activity and am IC50 value was determined for each compound.

[2] = tested on: drug-sensitive cell lines of Table 4; assay: Cell Line Growth Retardation Assay, average maximum effect in sensitive cohort; format: cell-based, Human; settings: average maximum growth inhibition over sensitive cohort of Table 4; 6 days; up to 1 μM
Procedure: (§1) Cells were seeded at densities of 1,000-5,000 cells per well in 48-well tissue culture plates. After a 24 h rest period, cells were treated with compound at 1 μM, 0.2 μM, 0.04 μM, 0.008 μM, 0.0016 μM, and 0.00032 μM. A group of cells were treated with the vehicle in which the compound was prepared and served as a control. Prior to treatment, cells were counted and this count was used as a baseline for the calculation of growth inhibition. The cells were grown in the presence of compounds for 6 days and were counted on day 6. All cell counting was performed using a Synentec Cellavista plate imager. Growth inhibition was calculated as a ratio of cell population doublings in the presence of compound versus the absence of compound and expressed as the maximum percentage growth inhibition achieved across the range of tested concentrations of the compound (“maximum effect” or “ME”) calculated by fitting curves to data points from each dose-response assay using the Proc NLIN function in SAS for Windows version 9.2 (SAS Institute, Inc.).
(§2) Human cancer cell lines were grouped as “sensitive” or “resistant” to PRMT5 inhibition based on whether their growth was retarded by JNJ-64619178 (i.e., (1S,2R,3R,5R)-3-(2-(2-amino-3-bromoquinolin-7-yl)ethyl)-5-(4-amino-7H-pyrrolo[2,3-d]pyrimidin-7-yl)cyclopentane-1,2-diol) (data not shown; see Table 4). These sensitive and resistant cohorts were interrogated for response to each compound, and ME was calculated for each cell line using the same technique described above. Average MEs for the sensitive and resistant cohorts were calculated as arithmetic means of the group. “A” represents a percent of maximum effect of 60% or greater, “B” represents a percent of maximum effect of 30% to 59%, and “C” represents a percent of maximum effect of 29% or lower.

[3] = Caco-2 Assay (Papp A to B); format: in vitro ADME; settings: human, pH 7.4
Procedure: The degree of bi-directional human intestinal permeability for compounds was estimated using a Caco-2 cell permeability assay. Caco-2 cells were seeded onto polyethylene membranes in 96-well plates. The growth medium was refreshed every 4 to 5 days until cells formed a confluent cell monolayer. HBSS with 10 mM HEPES at pH 7.4 was used as the transport buffer. Compounds were tested at 2 μM bi-directionally in duplicate. Digoxin, nadolol and metoprolol were included as standards. Digoxin was tested at 10 μM bi-directionally in duplicate, while nadolol and metoprolol were tested at 2 μM in the A to B direction in duplicate. The final DMSO concentration was adjusted to less than 1% for all experiments. The plate was incubated for 2 hours in a CO2 incubator at 37° C., with 5% CO2 at saturated humidity. After incubation, all wells were mixed with acetonitrile containing an internal standard, and the plate was centrifuged at 4,000 rpm for 10 minutes. 100 μL supernatant was collected from each well and diluted with 100 μL distilled water for LC/MS/MS analysis. Concentrations of test and control compounds in starting solution, donor solution, and receiver solution were quantified by LC/MS/MS, using peak area ratio of analyte/internal standard.
The apparent permeability coefficient Papp (cm/s) was calculated using the equation: Papp=(dCr/dt)×Vr/(A×C0), where dCr/dt is the cumulative concentration of compound in the receiver chamber as a function of time (μM/s); Vr is the solution volume in the receiver chamber (0.075 mL on the apical side, 0.25 mL on the basolateral side); A is the surface area for the transport, which is 0.0804 cm^2 for the area of the monolayer; and Co is the initial concentration in the donor chamber (μM). “A” represents a score of 1 or greater, “B” represents a score of 0.2 to 0.99, and “C” represents a score of less than 0.2.
The efflux ratio was calculated using the equation: Efflux Ratio=Papp(BA)/Papp(AB)
Percent recovery was calculated using the equation: % Recovery=100×[(Vr×Cr)+(Vd×Cd)]/(Vd×C0), where Vd is the volume in the donor chambers, which are 0.075 mL on the apical side and 0.25 mL on the basolateral side; and Cd and Cr are the final concentrations of transport compound in donor and receiver chambers, respectively. Measurement of Compound Metabolic Stability

[4] = tested on: drug-resistant cell lines of Table 4; assay: Cell Line Growth Retardation Assay, average maximum effect in resistant cohort; format: cell-based, Human; settings: average maximum growth inhibition over resistant cohort of Table 4; 6 days; up to 1 μM
Procedure: as §1, §2

[5] = Measurement of Compound Metabolic Stability in hepatocytes; format: in vitro ADME; settings: mouse hepatocytes; for hepatocyte CLint at 1 μM: read-out: CLint (μL/min/10^6)
Procedure: The metabolic stability of compounds was determined in hepatocytes from human, mice and rats. Compounds were diluted to 5 μM in Williams' Medium E from 10 mM stock solutions. 10 μL of each compound was aliquoted into a well of a 96-well plate and reactions were started by aliquoting 40 μL of a 625,000 cells/mL suspension into each well. The plate was incubated at 37° C. with 5% CO2. At each corresponding time point, the reaction was stopped by quenching with ACN containing internal standards (IS) at a 1:3. Plates were shaken at 500 rpm for 10 min, and then centrifuged at 3,220×g for 20 minutes. Supernatants were transferred to another 96-well plate containing a dilution solution. Supernatants were analyzed by LC/MS/MS. The Half-lives (in minutes) and CLint values (in μL/min/10^6 cells) of example compounds, as measured in mouse hepatocytes, are presented in Table 3. […] For CLint, “A” represents greater than 100 μL/min/10^6 cells, “B” represents 50 to 100 μL/min/10^6 cells, and “C” represents less than 50 μL/min/10^6 cells.
The remaining percent of compound after incubation was calculated using the following equation: % Remaining Compound=Peak Area Ratios of Tested Compound vs. Internal Standard at End Point • Peak Area Ratios of Tested Compound vs. Internal Standard at Start Point Compound half-life and CLint were calculated using the following equations: Ct=C0*e^−k*t(first order kinetics); when […], t1/2=ln 2/k=0.693/k; and CLint=k/(1,000,000 cells/mL) Activity-Guided Selection of Inhibitors

[6] = Water solubility of mesylate salt; format: physicochemical; settings: in water
Procedure: The freebase of Compound 15 was suspended in water, and methansulfonic acid was added (32 mg in 2 mL water). The resulting solution was gently heated and sonicated until a homogenous solution resulted, which was frozen and concentrated to dryness on the lyophilzer. The oily solid that resulted was re-dissolved in water, frozen and concentrated in the same manner to give a water soluble white solid (˜3 mg/mL). Further experiments were more easily conducted with this salt (32.0 mg, 91% yield over 2 steps).

T1 sequence (O14744 2-637 limits assumed): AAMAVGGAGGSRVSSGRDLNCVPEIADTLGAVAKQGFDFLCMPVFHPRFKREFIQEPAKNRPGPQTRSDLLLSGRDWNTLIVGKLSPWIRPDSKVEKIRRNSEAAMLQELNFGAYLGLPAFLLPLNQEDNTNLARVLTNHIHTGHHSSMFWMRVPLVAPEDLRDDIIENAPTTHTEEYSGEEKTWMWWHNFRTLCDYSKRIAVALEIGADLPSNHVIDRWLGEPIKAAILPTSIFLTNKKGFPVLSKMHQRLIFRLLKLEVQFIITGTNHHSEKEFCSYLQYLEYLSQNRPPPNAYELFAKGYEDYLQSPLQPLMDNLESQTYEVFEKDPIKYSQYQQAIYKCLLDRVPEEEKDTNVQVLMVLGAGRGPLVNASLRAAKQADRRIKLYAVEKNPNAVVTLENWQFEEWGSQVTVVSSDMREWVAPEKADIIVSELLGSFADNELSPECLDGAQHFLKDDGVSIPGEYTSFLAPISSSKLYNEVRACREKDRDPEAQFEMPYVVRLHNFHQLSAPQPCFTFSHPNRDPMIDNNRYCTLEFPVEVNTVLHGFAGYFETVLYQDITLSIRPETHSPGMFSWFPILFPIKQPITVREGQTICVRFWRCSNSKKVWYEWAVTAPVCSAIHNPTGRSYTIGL
T1 sequence (Q9BQA1 2-342 partner limits assumed): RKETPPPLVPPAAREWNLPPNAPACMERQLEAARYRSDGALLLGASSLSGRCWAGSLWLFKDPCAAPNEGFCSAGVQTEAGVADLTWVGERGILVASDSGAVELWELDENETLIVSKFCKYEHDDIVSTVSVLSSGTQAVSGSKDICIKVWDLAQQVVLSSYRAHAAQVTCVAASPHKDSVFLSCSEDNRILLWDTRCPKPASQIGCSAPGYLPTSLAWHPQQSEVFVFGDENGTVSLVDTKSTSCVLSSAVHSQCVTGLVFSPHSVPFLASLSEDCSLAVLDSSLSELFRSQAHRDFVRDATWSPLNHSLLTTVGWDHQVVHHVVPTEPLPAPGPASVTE

IC50 [1] [nM] | Papp A→B at 2 h, 2 μM [3] [×10⁻⁶ cm/s] | half-life at 1 μM [5] [min] | hepatocyte CLint at 1 μM [5] [µL/min/1e6 cells] | solubility [6] [µg/mL] | SMILES | AvgSens ME (%) [2] | AvgRes ME (%) [4]
≤ 100 | 0.2 to 0.99 | 15 to 50 | 50 to 100 | – | Nc1nc2cc(C3C[C@@]4(CO3)C[C@@H](n3ccc5c(Cl)ncnc53)[C@H](O)[C@@H]4O)ccc2cc1Br (stereo partly drawn) [Compound 17] | A (a percent of maximum effect of 60% or greater) | B (a percent of maximum effect of 30% to 59%)
≤ 100 | ≥ 1 | 15 to 50 | 50 to 100 | – | CCNc1ncnc2c1ccn2[C@@H]1C[C@@]2(CO[C@@H](c3ccc4cc(Br)c(N)nc4c3)C2)[C@@H](O)[C@H]1O [Compound 24] | A (a percent of maximum effect of 60% or greater) | B (a percent of maximum effect of 30% to 59%)
≤ 100 | ≥ 1 | > 50 | < 50 | – | Cc1ncnc2c1ccn2[C@@H]1C[C@@]2(CO[C@@H](c3ccc4cc(Br)c(N)nc4c3)C2)[C@@H](O)[C@H]1O [Compound 19] | A (a percent of maximum effect of 60% or greater) | B (a percent of maximum effect of 30% to 59%)
≤ 100 | 0.2 to 0.99 | > 50 | < 50 | – | CNc1ncnc2c1ccn2[C@@H]1C[C@@]2(CO[C@@H](c3ccc4cc(Br)c(N)nc4c3)C2)[C@@H](O)[C@H]1O [Compound 23] | A (a percent of maximum effect of 60% or greater) | B (a percent of maximum effect of 30% to 59%)
≤ 100 | ≥ 1 | < 15 | > 100 | – | Nc1nc2cc([C@H]3C[C@@]4(CO3)C[C@@H](n3ccc5cncnc53)[C@H](O)[C@@H]4O)ccc2cc1Br [Compound 22] | A (a percent of maximum effect of 60% or greater) | B (a percent of maximum effect of 30% to 59%)

Continued, compound first:

SMILES | IC50 [1] [nM] | Papp A→B at 2 h, 2 μM [3] [×10⁻⁶ cm/s] | half-life at 1 μM [5] [min] | hepatocyte CLint at 1 μM [5] [µL/min/1e6 cells] | solubility [6] [µg/mL] | AvgSens ME (%) [2] | AvgRes ME (%) [4]
Nc1nc2cc(C3C[C@@]4(CN3)C[C@@H](n3ccc5c(N)ncnc53)[C@H](O)[C@@H]4O)ccc2cc1Br (single isomer, unassigned) [Compound 8] | 101 to 500 | < 0.2 | – | – | – | C (a percent of maximum effect of 29% or lower) | C (a percent of maximum effect of 29% or lower)
Nc1nc2cc(C3C[C@@]4(CO3)C[C@@H](n3ccc5c(N)ncnc53)[C@H](O)[C@@H]4O)ccc2cc1Br (single isomer, unassigned) [Compound 15] | ≤ 100 | < 0.2 | > 50 | < 50 | ~3000 | A (a percent of maximum effect of 60% or greater) | B (a percent of maximum effect of 30% to 59%)
Nc1nc2cc(C3C[C@@]4(CN3)C[C@@H](n3ccc5c(Cl)ncnc53)[C@H](O)[C@@H]4O)ccc2cc1Br (single isomer, unassigned) [Compound 9] | ≤ 100 | < 0.2 | – | – | – | B (a percent of maximum effect of 30% to 59%) | C (a percent of maximum effect of 29% or lower)
